Data from US20090148512A1, “NOVEL USES OF CHLORAMPHENICOL AND ANALOGOUS THEREOF” (LANNETT CO INC, priority 2007, published 2009).
≈ marks a conversion by molar mass, not a printed value. Where two headings read alike, the source gives them in different places.

Tests used:
MRSA = assay: In vitro activity (MIC) against MRSA strains collected in 2005; assay type: cell-based, Staphylococcus aureus; details: for % resistance / % susceptible: CLSI (2007) criteria
[1] = tested on: susceptible Staphylococcus aureus (MSSA); assay: In vitro activity (MIC) against susceptible Staphylococcus aureus (MSSA) strains collected in 2005; assay type: cell-based; details: for % resistance / % susceptible: CLSI (2007) criteria
C. difficle = assay: In vitro activity (MIC) against 25 clinical strains of C. difficile; assay type: cell-based; details: for MIC50 / MIC90: Clostridioides difficile
[2] = North America 2005, 1,158 strains
[3] = North America and Europe 2005, 1,644 strains
[4] = Staphylococcus aureus, MRSA, North America 2005, 1,158 strains, read-out: MIC90
[5] = Staphylococcus aureus, MRSA, North America and Europe 2005, 1,644 strains, read-out: MIC50
[6] = Staphylococcus aureus, MRSA, North America and Europe 2005, 1,644 strains, read-out: MIC90
[7] = North America 2005, 1,232 strains
[8] = North America and Europe 2005, 2,276 strains
[9] = Staphylococcus aureus, MSSA, North America and Europe 2005, 2,276 strains, read-out: MIC50
[10] = Staphylococcus aureus, MSSA, North America and Europe 2005, 2,276 strains, read-out: MIC90

MIC90 (MRSA; [4])	SMILES	MIC50 (MRSA; [2])	% resistance (MRSA; [2])	% susceptible (MRSA; [2])	% resistance (MRSA; [3])	% susceptible (MRSA; [3])	MIC50 (MRSA; [5])	MIC90 (MRSA; [6])	MIC50 ([1]; Europe 2005, 1,044 strains)	MIC90 ([1]; Europe 2005, 1,044 strains)	% resistance ([1]; Europe 2005, 1,044 strains)	% susceptible ([1]; Europe 2005, 1,044 strains)	MIC50 [1, 7]	MIC90 [1, 7]	% resistance [1, 7]	% susceptible [1, 7]	% resistance [1, 8]	% susceptible [1, 8]	MIC50 [1, 9]	MIC90 [1, 10]	also measured
> 2 µg/mL	CCC[C@@H]1C[C@@H](C(=O)N[C@@H]([C@H]2O[C@H](SC)[C@H](O)[C@@H](O)[C@H]2O)[C@H](C)Cl)N(C)C1 [Clindamycin]	≦0.25 μg/ml	44.3%	55.5%	45.3%	54.6%	≤ 0.25 µg/mL	> 2 µg/mL	≦0.25 μg/ml	≦0.25 μg/ml	3.2%	96.6%	≦0.25 μg/ml	≦0.25 μg/ml	4.8%	95.0%	4.0%	95.7%	≤ 0.25 µg/mL	≤ 0.25 µg/mL	
> 8 µg/mL	CC[C@H]1OC(=O)[C@H](C)[C@@H](O[C@H]2C[C@@](C)(OC)[C@@H](O)[C@H](C)O2)[C@H](C)[C@@H](O[C@@H]2O[C@H](C)C[C@H](N(C)C)[C@H]2O)[C@](C)(O)C[C@@H](C)C(=O)[C@H](C)[C@@H](O)[C@]1(C)O [Erythromycin]	>8 µg/mL	94.8%	4.8%	89.2%	10.2%	> 8 µg/mL	> 8 µg/mL		>8 µg/mL	13.3%	86.2%		>8 µg/mL	28.0%	70.8%	21.3%	77.9%		> 8 µg/mL	
> 4 µg/mL	C[C@H]1COc2c(N3CCN(C)CC3)c(F)cc3c(=O)c(C(=O)O)cn1c23 [Levofloxacin]	>4 µg/mL	71.7%	26.4%	77.4%	20.6%	> 4 µg/mL	> 4 µg/mL	≦0.5 μg/ml	≦0.5 μg/ml	6.8%	93.0%	≦0.5 μg/ml	≦0.5 μg/ml	6.6%	93.0%	6.7%	93.0%	≤ 0.5 µg/mL	≤ 0.5 µg/mL	
	Cc1ncc([N+](=O)[O-])n1CCO [Metronidazole]																				% resistant (C. difficle; 25 clinical strains): 00%; % susceptible (C. difficle; 25 clinical strains): 100%; MIC50 (C. difficle): 0.25 µM (≈ 0.0428 µg/mL); MIC90 (C. difficle): 0.5 µM (≈ 0.0856 µg/mL)
	CN[C@H](CC(C)C)C(=O)N[C@H]1C(=O)N[C@@H](CC(N)=O)C(=O)N[C@H]2C(=O)N[C@H]3C(=O)N[C@H](C(=O)N[C@H](C(=O)O)c4cc(O)cc(O)c4-c4cc3ccc4O)[C@H](O)c3ccc(c(Cl)c3)Oc3cc2cc(c3O[C@@H]2O[C@H](CO)[C@@H](O)[C@H](O)[C@H]2O[C@H]2C[C@](C)(N)[C@H](O)[C@H](C)O2)Oc2ccc(cc2Cl)[C@H]1O [Vancomycin]	1 µg/mL (≈ 0.69 µM)	0.0%	100%	0.0%	100%	1 µg/mL (≈ 0.69 µM)	1 µg/mL (≈ 0.69 µM)	1 µg/mL (≈ 0.69 µM)	1 µg/mL (≈ 0.69 µM)	0.0%	100%	1 µg/mL (≈ 0.69 µM)	1 µg/mL (≈ 0.69 µM)	0.0%	100%	0.0%	100%	1 µg/mL (≈ 0.69 µM)	1 µg/mL (≈ 0.69 µM)	MIC90 (MRSA; [2]): 1 µg/mL (≈ 0.69 µM); Range (MIC) ([1]; Europe 2005, 1,044 strains): ≦0.12-2; Range (MIC) [1, 7]: ≦0.25-2; Range (MIC) [1, 8]: ≦0.12-2

SMILES	MIC90 (MRSA; [4])	MIC50 (MRSA; [2])	% resistance (MRSA; [2])	% susceptible (MRSA; [2])	% resistance (MRSA; [3])	% susceptible (MRSA; [3])	MIC50 (MRSA; [5])	MIC90 (MRSA; [6])	MIC50 ([1]; Europe 2005, 1,044 strains)	MIC90 ([1]; Europe 2005, 1,044 strains)	% resistance ([1]; Europe 2005, 1,044 strains)	% susceptible ([1]; Europe 2005, 1,044 strains)	MIC50 [1, 7]	MIC90 [1, 7]	% resistance [1, 7]	% susceptible [1, 7]	% resistance [1, 8]	% susceptible [1, 8]	MIC50 [1, 9]	MIC90 [1, 10]	also measured
CN(C)[C@@H]1C(O)=C(C(N)=O)C(=O)[C@@]2(O)C(O)=C3C(=O)c4c(O)cccc4[C@@](C)(O)[C@H]3C[C@@H]12 [Tetracycline]	≤ 2 µg/mL	≦2 μg/ml	7.0%	92.5%	10.3%	88.8%	≤ 2 µg/mL	> 8 µg/mL	≦2 μg/ml	≦2 μg/ml	6.5%	93.3%	≦2 μg/ml	≦2 μg/ml	2.7%	96.8%	4.4%	95.2%	≤ 2 µg/mL	≤ 2 µg/mL	
O=C(N[C@H](CO)[C@H](O)c1ccc([N+](=O)[O-])cc1)C(Cl)Cl [chloramphenicol, Chloramphenicol]	8 µg/mL (≈ 24.8 µM)	8 µg/mL (≈ 24.8 µM)	0.4%	92.3%	1.9%	91.5%	8 µg/mL (≈ 24.8 µM)	8 µg/mL (≈ 24.8 µM)	8 µg/mL (≈ 24.8 µM)	8 µg/mL (≈ 24.8 µM)	1.4%	98.4%	8 µg/mL (≈ 24.8 µM)	8 µg/mL (≈ 24.8 µM)	0.0%	99.4%	0.7%	98.9%	8 µg/mL (≈ 24.8 µM)	8 µg/mL (≈ 24.8 µM)	% resistant (C. difficle; 25 clinical strains): 8.0%; % susceptible (C. difficle; 25 clinical strains): 88.0%; MIC50 (C. difficle; 25 clinical strains, read-out: MIC50): 4 µM (≈ 1.29 µg/mL); MIC90 (C. difficle; 25 clinical strains, read-out: MIC90): 16 µM (≈ 5.17 µg/mL)
